The source of these data is patent publication US20070213301A1 (ACHILLION PHARMACEUTICALS, INC., priority 2006, published 2007).

This assay relates to HCV replicon. The assay can be described thus: HCV replicon replication assay (NPTII ELISA). It counts as cell-based, Hepatitis C virus (Huh-7 cells). Particulars: Hepatitis C virus, Huh-7, 72 h, inhibition of HCV replicon replication in Huh-7 HCV replicon-containing cells, three days incubation, NPT level by ELISA; read-out: EC50. How it is done: Compounds claimed herein are tested for the ability to inhibit viral replication of the Hepatitis C replicon in cultured cells in which the HCV replicon construct has been incorporated. The HCV replicon system was described by Bartenschlager, et. al (Science, 285, pp. 110-113 (1999)). The replicon system is predictive of in vivo anti-HCV activity; compounds that are active in humans uniformly evidence activity in the replicon assay.
In this assay HCV replicon containing cells are treated with different concentrations of the test compound to ascertain the ability of the test compound to suppress replication of the HCV replicon. As a positive control, HCV replicon-containing cells are treated with different concentrations of interferon alpha, a known inhibitor of HCV replication. The replicon assay system includes Neomycin Phosphotransferase (NPT) as a component of the replicon itself in order to detect the transcription of replicon gene products in the host cell. Cells in which the HCV replicon is actively replicating have high levels of NPT; the level of NPT is proportional to HCV replication. […] The NPT level of each sample is measured using a captured ELISA.
The HCV replicon contains, 5′-3′, the HCV-IRES, the neomycin phosphotransferase (neo) gene, the IRES of encephalomyocarditis virus, which directs translation of HCV sequences NS3 to NS5B, and the 3′-NTR. The sequence of the HCV replicon has been deposited in GenBank (Accession no. AJ242652).
The replicon is transfected into Huh-7 cells using standard methods such as electroporation.
The cells are then seeded onto 96-well plates at a density of 6000-7500 cells/100 microliters/well (6-7.5×10^5 cells/10 ml/plate). The plates are then incubated at 37° C. in a 5% CO2 incubator.
HCV replicon-containing cells are rinsed with once PBS once; 2 mls of trypsin are then added. Cells are incubated at 37° C. in a 5% CO2 incubator for 3-5 minutes. 10 mls of complete medium is added to stop the reaction. Cells are blown gently, put into a 15 ml tube, and spun at 1200 rpm for four minutes. The trypsin/medium solution is removed and 5 mls of medium (500 ml DMEM (high glucose)) from BRL catalog #12430-054; 50 mls 10% FBS, 5% Geneticin G418 (50 mg/ml, BRL catalog #10131-035), 5 ml MEM non-essential amino acids (100× BRL #11140-050) and 5 ml pen-strep (BRL #15140-148) is added. The cells and media are mixed carefully
Cells are plated with screening medium (500 ml DMEM (BRL #21063-029), 50 ml FBS (BRL #10082-147) and 5 ml MEM non-essential amino acid (BRL #11140-050) at 6000-7500 cells/100 μl/well of 96 well plate (6-7.5×10^5 cells/10 ml/plate). Plates are placed into 37° C. 5% CO2 incubator overnight.
The following morning, drugs (test compounds or interferon alpha) are diluted in 96 well U bottom plates with media or DMSO/media, depending on the final concentration chosen for screening. Generally for 6 concentrations of each test compounds ranging from 10 micromolar to 0.03 micromolar are applied. 100 μl of the test compound dilution is placed in wells of the 96 well plate containing the HCV replicon cells. Media without drug is added to some wells as a negative controls. DMSO is known to affect cell growth. Therefore, if drugs diluted in DMSO are used, all wells, including negative control (media only) and positive control (interferon alpha) wells, must contain the same concentration of DMSO, for single dose screening. The plates are incubated at 37° C. in a humidified 5% CO2 environment for three days.
On day four, the NTPII assay is quantitated. The medium is poured from the plates and the plates are washed once in 200 μl of PBS. The PBS is then decanted and the plates tapped in a paper towel to remove any remaining PBS. Cells are fixed in situ with 100 μl/well of pre-cooled (−20° C.) methanol:acetone (1:1) and the plates are placed at −20° C. for 30 minutes.
The fixing solution is poured from the plates and the plates allowed to air-dry completely (approximately one hour). […]
On the technique in general: A replicon is a self-replicating genome or part of one, used to study replication in cells.
On to `CCCCCN(C)c1ccc(N(C(=O)C(=O)OC)c2nc(-c3cccnc3)cs2)cc1C(F)(F)F` [Compound 53, methyl 2-((4-(methyl(pentyl)amino)-3-(trifluoromethyl)phenyl)(4-(pyridin-3-yl)thiazol-2-yl)amino)-2-oxoacetate], for which the EC50 was less than 1000 nM.

On to `CCCCCOc1ccc(N(C(=O)COC(C)=O)c2nc(-c3ccc(F)c(F)c3)cs2)cc1C(F)(F)F` [Compound 54, 2-((4-(3,4-difluorophenyl)thiazol-2-yl)(4-(pentyloxy)-3-(trifluoromethyl)phenyl)amino)-2-oxoethyl acetate], for which the EC50 was less than 1000 nM.

Turning to `CCCCCOc1ccc(N(C(=O)OC)c2nc(-c3ccc(F)c(F)c3)cs2)cc1C(F)(F)F` [Compound 56, methyl 4-(3,4-difluorophenyl)thiazol-2-yl(4-(pentyloxy)-3-(trifluoromethyl)phenyl)carbamate], the EC50 was less than 1000 nM. With `CCCCCCCCOc1ccc(N(C(=O)COC(C)=O)c2nc(-c3ccc(F)c(F)c3)cs2)cc1` [Compound 57, 2-((4-(3,4-difluorophenyl)thiazol-2-yl)(4-(octyloxy)phenyl)amino)-2-oxoethyl acetate], the EC50 is less than 1000 nM. Turning to `CCCCCCCCOc1ccc(N(C(=O)C(=O)OC)c2nc(-c3ccc(F)c(F)c3)cs2)cc1` [Compound 58, methyl 2-((4-(3,4-difluorophenyl)thiazol-2-yl)(4-(octyloxy)phenyl)amino)-2-oxoacetate], the EC50 is less than 1000 nM.

With `CCCCCCCCOc1ccc(N(C(=O)OC)c2nc(-c3ccc(F)c(F)c3)cs2)cc1` [Compound 59, methyl 4-(3,4-difluorophenyl)thiazol-2-yl(4-(octyloxy)phenyl)carbamate], the EC50 fell in the range of 1000 to 10000 nM. As to `CCCCCCCCOc1ccc(N(C(=O)COC(C)=O)c2nc(-c3ccc(F)cc3)cs2)cc1` [Compound 60, 2-((4-(4-fluorophenyl)thiazol-2-yl)(4-(octyloxy)phenyl)amino)-2-oxoethyl acetate], the EC50 is less than 1000 nM.

For `CCCCCCCCOc1ccc(N(C(N)=O)c2nc(-c3ccc(F)cc3)cs2)cc1` [Compound 61, 1-(4-(4-fluorophenyl)thiazol-2-yl)-1-(4-(octyloxy)phenyl)urea], the EC50 lay in the range of 1000 to 10000 nM. For the molecule `CCCCCOc1ccc(N(C(=O)CO)c2nc(-c3cccnc3)cs2)cc1C(F)(F)F` [Compound 62, 2-hydroxy-N-(4-(pentyloxy)-3-(trifluoromethyl)phenyl)-N-(4-(pyridin-3-yl)thiazol-2-yl)acetamide], the EC50 was less than 1000 nM. The value for `CCCCCCCCOc1ccc(N(C(=O)C(C)OC(C)=O)c2nc(-c3ccc(C)nc3)cs2)cc1` (stereo not drawn) [Compound 63, 1-((4-(6-methylpyridin-3-yl)thiazol-2-yl)(4-(octyloxy)phenyl)amino)-1-oxopropan-2-yl acetate] was less than 1000 nM; that for `CCCCCOc1ccc(N(C(=O)C(C)OC(C)=O)c2nc(-c3cccnc3)cs2)cc1C(F)(F)F` (stereo not drawn) [Compound 64, 1-oxo-1-((4-(pentyloxy)-3-(trifluoromethyl)phenyl)(4-(pyridin-3-yl)thiazol-2-yl)amino)propan-2-yl acetate] was less than 1000 nM; that for `CCCCCOc1ccc(N(C(=O)C(OC(C)=O)c2ccccc2)c2nc(-c3cccnc3)cs2)cc1C(F)(F)F` (stereo not drawn) [Compound 65, 2-oxo-2-((4-(pentyloxy)-3-(trifluoromethyl)phenyl)(4-(pyridin-3-yl)thiazol-2-yl)amino)-1-phenylethyl acetate] was less than 1000 nM.

For the molecule `CCCCCCCCOc1ccc(N(C(=O)C(=O)OCC)c2nc(-c3cccnc3)cs2)cc1` [Compound 66, ethyl 2-((4-(octyloxy)phenyl)(4-(pyridin-3-yl)thiazol-2-yl)amino)-2-oxoacetate], the EC50 was less than 1000 nM. In the case of `CCCCCCCCOc1ccc(N(C(=O)COC(C)=O)c2nc(-c3cccnc3)cs2)cc1` [Compound 67, 2-((4-(octyloxy)phenyl)(4-(pyridin-3-yl)thiazol-2-yl)amino)-2-oxoethyl acetate], the EC50 was less than 1000 nM. Consider `CCCCCCCCOc1ccc(N(C(C)=O)c2nc(-c3cccnc3)cs2)cc1` [Compound 68, N-(4-(octyloxy)phenyl)-N-(4-(pyridin-3-yl)thiazol-2-yl)acetamide], for which the EC50 was less than 1000 nM.

Regarding `CCCCCOc1ccc(N(C(N)=O)c2nc(-c3ccc(F)cc3)cs2)cc1C(F)(F)F` [Compound 69, 1-(4-(4-fluorophenyl)thiazol-2-yl)-1-(4-(pentyloxy)-3-(trifluoromethyl)phenyl)urea], the EC50 was less than 1000 nM. Under `CCCCCOc1ccc(N(C(N)=O)c2nc(-c3cccnc3C)cs2)cc1C(F)(F)F` [Compound 70, 1-(4-(2-methylpyridin-3-yl)thiazol-2-yl)-1-(4-(pentyloxy)-3-(trifluoromethyl)phenyl)urea] stands less than 1000 nM; under `CCCCCCCOc1ccc(N(C(N)=O)c2nc(-c3ccc(F)cc3)cs2)cc1` [Compound 71, 1-(4-(4-fluorophenyl)thiazol-2-yl)-1-(4-(heptyloxy)phenyl)urea], less than 1000 nM. As for `CCCCCCCCOc1ccc(N(C(N)=O)c2nc(-c3cccnc3)cs2)cc1` [Compound 72, 1-(4-(octyloxy)phenyl)-1-(4-(pyridin-3-yl)thiazol-2-yl)urea], the EC50 is less than 1000 nM.

On to `CCCCCCCCOc1ccc(N(C(=O)NCC)c2nc(-c3cccnc3)cs2)cc1` [Compound 73, 3-ethyl-1-(4-(octyloxy)phenyl)-1-(4-(pyridin-3-yl)thiazol-2-yl)urea], for which the EC50 is greater than 10000 nM.

For `CCCCCCCCOc1ccc(N(C(=O)NC(C)(C)C)c2nc(-c3cccnc3)cs2)cc1` [Compound 74, 3-tert-butyl-1-(4-(octyloxy)phenyl)-1-(4-(pyridin-3-yl)thiazol-2-yl)urea], the EC50 was in the range of 1000 to 10000 nM. On to `CCCCCOc1ccc(N(C(=O)NCC)c2nc(-c3cccnc3)cs2)cc1C(F)(F)F` [Compound 75, 3-ethyl-1-(4-(pentyloxy)-3-(trifluoromethyl)phenyl)-1-(4-(pyridin-3-yl)thiazol-2-yl)urea], for which the concentration giving a half-maximal response (EC50) is less than 1000 nM. The value for `CCCCCOc1ccc(N(C(=O)NC(C)(C)C)c2nc(-c3cccnc3)cs2)cc1C(F)(F)F` [Compound 76, 3-tert-butyl-1-(4-(pentyloxy)-3-(trifluoromethyl)phenyl)-1-(4-(pyridin-3-yl)thiazol-2-yl)urea] was less than 1000 nM. On to `CCCCCOc1ccc(N(C(N)=O)c2nc(-c3ccc(C(=O)N(C)C)nc3)cs2)cc1C(F)(F)F` [Compound 77, N,N-dimethyl-5-(2-(1-(4-(pentyloxy)-3-(trifluoromethyl)phenyl)ureido)thiazol-4-yl)picolinamide], for which the EC50 was less than 1000 nM. The value for `CCCCCCCCOc1ccc(N(C(N)=O)c2nc(-c3ccc(C(=O)N(C)C)nc3)cs2)cc1` [Compound 78, N,N-dimethyl-5-(2-(1-(4-(octyloxy)phenyl)ureido)thiazol-4-yl)picolinamide] was greater than 10000 nM; that for `CCCCCCCOc1ccc(N(C(N)=O)c2nc(-c3ccc(C(=O)N(C)C)nc3)cs2)cc1` [Compound 79, 5-(2-(1-(4-(heptyloxy)phenyl)ureido)thiazol-4-yl)-N,N-dimethylpicolinamide] was greater than 10000 nM. With `CCCCCCCCOc1ccc(N(C(N)=O)c2nc(-c3ccncc3)cs2)cc1` [Compound 80, 1-(4-(octyloxy)phenyl)-1-(4-(pyridin-4-yl)thiazol-2-yl)urea], the EC50 is greater than 10000 nM.

In general, EC50 refers to the concentration needed to bring the measured effect to its halfway point.
